Experimental data as given in patent US12077503B2, “Substituted cyclic amides and their use as herbicides” (FMC CORPORATION, priority 2015, dated 2024).

Assays:
Type in all cases: in vivo
[1] = system: corn (Zea mays); assay: Test G Post-Emergence Protocol; conditions: Zea mays, post-emergence, 312 h
How it was run: (§1)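 Scores run 0 (no damage) to 100 (total damage) and were taken 13 days after spraying. Plants had been raised in pots for 8 days under glasshouse control (24/16 °C, 14 h photoperiod, 65% humidity) and then treated at 15.625, 62.5 or 250 g/ha.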

[2] = system: barnyardgrass (Echinochloa crus-galli); assay: Test G Post-Emergence Protocol; conditions: Echinochloa crus-galli, post-emergence, 312 h
How it was run: as §1

[3] = system: redroot pigweed (Amaranthus retroflexus); assay: Test G Post-Emergence Protocol; conditions: Amaranthus retroflexus, post-emergence, 312 h
How it was run: as §1

[4] = system: giant foxtail (Setaria faberi); assay: Test G Post-Emergence Protocol; conditions: Setaria faberi, post-emergence, 312 h
How it was run: as §1

[5] = system: ivy-leaved morning glory (Ipomoea hederacea); assay: Test G Post-Emergence Protocol; conditions: Ipomoea, post-emergence, 312 h
How it was run: as §1

[6] = system: velvetleaf (Abutilon theophrasti); assay: Test G Post-Emergence Protocol; conditions: Abutilon theophrasti, post-emergence, 312 h
How it was run: as §1

[7] = system: corn (Zea mays); assay: Test G Pre-Emergence Protocol; conditions: Zea mays, pre-emergence, 312 h, evaluated after 13 days
How it was run: (§2)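 Scores are visual damage ratings from 0 (no damage) to 100 (total plant kill), taken 13 days after treatment. Compound was sprayed one day post-sowing at 15.625, 62.5 or 250 g/ha in 50:50 acetone/water with 0.5% Tween 20.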

[8] = system: barnyardgrass (Echinochloa crus-galli); assay: Test G Pre-Emergence Protocol; conditions: Echinochloa crus-galli, pre-emergence, 312 h, evaluated after 13 days
How it was run: as §2

[9] = system: redroot pigweed (Amaranthus retroflexus); assay: Test G Pre-Emergence Protocol; conditions: Amaranthus retroflexus, pre-emergence, 312 h, evaluated after 13 days
How it was run: as §2

[10] = system: giant foxtail (Setaria faberi); assay: Test G Pre-Emergence Protocol; conditions: Setaria faberi, pre-emergence, 312 h, evaluated after 13 days
How it was run: as §2

[11] = system: ivy-leaved morning glory (Ipomoea hederacea); assay: Test G Pre-Emergence Protocol; conditions: Ipomoea, pre-emergence, 312 h, evaluated after 13 days
How it was run: as §2

[12] = system: velvetleaf (Abutilon theophrasti); assay: Test G Pre-Emergence Protocol; conditions: Abutilon theophrasti, pre-emergence, 312 h, evaluated after 13 days
How it was run: as §2

CN1C[C@@H](c2ccc(C(F)(F)F)nc2)[C@H](C(=O)Nc2ccccc2F)C1=O (racemic) [Compound 1419]
20%: plant injury at 250 g/ha ([1]; 250 g ai/ha, evaluated after 13 days, read-out: damage to plant, Corn (100=total damage to plant; 0=no damage to plant)) | pest or weed control at 62.5 g/ha ([3]; 62.5 g ai/ha, evaluated after 13 days, read-out: Pigweed, Redroot damage rating (100=total damage to plant; 0=no damage to plant)) | pest or weed control at 62.5 g/ha ([5]; 62.5 g ai/ha, evaluated after 13 days, read-out: Morningglory, Ivy-leaved damage rating (100=total damage to plant; 0=no damage to plant))
90%: pest or weed control at 250 g/ha ([8]; 250 g ai/ha, read-out: Barnyardgrass damage rating (100=total damage to plant; 0=no damage to plant)) | pest or weed control at 250 g/ha ([10]; 250 g ai/ha, read-out: Foxtail, Giant damage rating (100=total damage to plant; 0=no damage to plant))
70%: pest or weed control at 250 g/ha ([4]; 250 g ai/ha, evaluated after 13 days, read-out: damage to plant, Foxtail, Giant (100=total damage to plant; 0=no damage to plant)) | pest or weed control at 250 g/ha ([9]; 250 g ai/ha, read-out: Pigweed, Redroot damage rating (100=total damage to plant; 0=no damage to plant))
50%: pest or weed control at 62.5 g/ha ([2]; 62.5 g ai/ha, evaluated after 13 days, read-out: Barnyardgrass damage rating (100=total damage to plant; 0=no damage to plant)) | plant injury at 250 g/ha ([7]; 250 g ai/ha, read-out: Corn damage rating (100=total damage to plant; 0=no damage to plant))
0%: pest or weed control at 15.625 g/ha ([5]; 15.625 g ai/ha, evaluated after 13 days (100=total damage to plant; 0=no damage to plant), read-out: Morningglory, Ivy-leaved damage rating) | pest or weed control at 250 g/ha ([6]; 250 g ai/ha, evaluated after 13 days, read-out: damage to plant, Velvetleaf (100=total damage to plant; 0=no damage to plant)) | plant injury at 15.625 g/ha ([7]; 15.625 g ai/ha, read-out: Corn damage rating (100=total damage to plant; 0=no damage to plant)) | plant injury at 62.5 g/ha ([7]; 62.5 g ai/ha, 100=total damage to plant, 0=no damage to plant, read-out: plant damage rating, Corn) | pest or weed control at 15.625 g/ha ([9]; 15.625 g ai/ha, read-out: Pigweed, Redroot damage rating (100=total damage to plant; 0=no damage to plant)) | pest or weed control at 62.5 g/ha ([9]; 62.5 g ai/ha, 100=total damage to plant, 0=no damage to plant, read-out: plant damage rating, Pigweed, Redroot) | pest or weed control at 15.625 g/ha ([11]; 15.625 g ai/ha, read-out: Morning-glory, Ivy-leaved damage rating (100=total damage to plant; 0=no damage to plant)) | pest or weed control at 62.5 g/ha ([11]; 62.5 g ai/ha, 100=total damage to plant, 0=no damage to plant, read-out: plant damage rating, Morningglory, Ivy-leaved) | pest or weed control at 15.625 g/ha ([12]; 15.625 g ai/ha, read-out: Velvetleaf damage rating (100=total damage to plant; 0=no damage to plant)) | pest or weed control at 62.5 g/ha ([12]; 62.5 g ai/ha, 100=total damage to plant, 0=no damage to plant, read-out: plant damage rating, Velvetleaf) | pest or weed control at 250 g/ha ([12]; 250 g ai/ha, read-out: Velvetleaf damage rating (100=total damage to plant; 0=no damage to plant))
60%: pest or weed control at 250 g/ha ([2]; 250 g ai/ha, evaluated after 13 days, read-out: damage to plant, Barnyardgrass (100=total damage to plant; 0=no damage to plant)) | pest or weed control at 62.5 g/ha ([4]; 62.5 g ai/ha, evaluated after 13 days, read-out: Foxtail, Giant damage rating (100=total damage to plant; 0=no damage to plant)) | pest or weed control at 250 g/ha ([11]; 250 g ai/ha, read-out: Morningglory, Ivy-leaved damage rating (100=total damage to plant; 0=no damage to plant))
30%: pest or weed control at 15.625 g/ha ([2]; 15.625 g ai/ha, evaluated after 13 days (100=total damage to plant; 0=no damage to plant), read-out: Barnyardgrass damage rating) | pest or weed control at 250 g/ha ([3]; 250 g ai/ha, evaluated after 13 days, read-out: damage to plant, Pigweed, Redroot (100=total damage to plant; 0=no damage to plant))
80%: pest or weed control at 62.5 g/ha ([8]; 62.5 g ai/ha, 100=total damage to plant, 0=no damage to plant, read-out: plant damage rating, Barnyardgrass) | pest or weed control at 62.5 g/ha ([10]; 62.5 g ai/ha, 100=total damage to plant, 0=no damage to plant, read-out: plant damage rating, Foxtail, Giant)
10%: plant injury at 15.625 g/ha ([1]; 15.625 g ai/ha, evaluated after 13 days (100=total damage to plant; 0=no damage to plant), read-out: Corn damage rating) | plant injury at 62.5 g/ha ([1]; 62.5 g ai/ha, evaluated after 13 days, read-out: Corn damage rating (100=total damage to plant; 0=no damage to plant)) | pest or weed control at 15.625 g/ha ([3]; 15.625 g ai/ha, evaluated after 13 days (100=total damage to plant; 0=no damage to plant), read-out: Pigweed, Redroot damage rating) | pest or weed control at 15.625 g/ha ([4]; 15.625 g ai/ha, evaluated after 13 days (100=total damage to plant; 0=no damage to plant), read-out: Foxtail, Giant damage rating) | pest or weed control at 250 g/ha ([5]; 250 g ai/ha, evaluated after 13 days, read-out: damage to plant, Morningglory, Ivy-leaved (100=total damage to plant; 0=no damage to plant)) | pest or weed control at 15.625 g/ha ([6]; 15.625 g ai/ha, evaluated after 13 days (100=total damage to plant; 0=no damage to plant), read-out: Velvetleaf damage rating) | pest or weed control at 62.5 g/ha ([6]; 62.5 g ai/ha, evaluated after 13 days, read-out: Velvetleaf damage rating (100=total damage to plant; 0=no damage to plant)) | pest or weed control at 15.625 g/ha ([8]; 15.625 g ai/ha, read-out: Barnyard grass damage rating (100=total damage to plant; 0=no damage to plant)) | pest or weed control at 15.625 g/ha ([10]; 15.625 g ai/ha, read-out: Foxtail, Giant damage rating (100=total damage to plant; 0=no damage to plant))
